# Test results: patent US6407103B2, “Indeno [1,2-c] pyrazol-4-ones and their uses” (Bristol-Myers Squibb Pharma Company, priority 1998, dated 2002)
row,Compound,melting point [°C]
1,"COc1ccc(-c2[nH]nc3c2C(=O)c2c(NC(=O)CN4CCCCC4)cccc2-3)cc1 [Example XXIX, 3-(4-methoxyphenyl)-5-(piperidinoacetamido)indeno[1,2-c]pyrazol-4-one]",291
2,"COc1ccc(-c2[nH]nc3c2C(=O)c2c(NC(=O)CN4CCNCC4)cccc2-3)cc1 [Example XXVI, 3-(4-methoxyphenyl)-5-(piperazinoacetamido)indeno[1,2-c]pyrazol-4-one]",277
3,"COc1ccc(-c2[nH]nc3c2C(=O)c2c(NC(=O)CN4CCN(C)CC4)cccc2-3)cc1 [Example XXVII, 3-(4-methoxyphenyl)-5-(4-methylpiperazinoacetamido)indeno[1,2-c]pyrazol-4-one]",> 300
4,"COc1ccc(-c2[nH]nc3c2C(=O)c2c(NC(=O)CN4CCN(CCO)CC4)cccc2-3)cc1 [Example XXVIII, 3-(4-methoxyphenyl)-5-(4-(2-hydroxyethyl)piperazinoacetamido)indeno[1,2-c]pyrazol-4-one]",> 300
5,"COc1ccc(-c2[nH]nc3c2C(=O)c2c(NC(=O)CN4CCC(CN)CC4)cccc2-3)cc1 [Example XXX, 3-(4-methoxyphenyl)-5-(4-(aminomethyl)piperidinoacetamido)indeno[1,2-c]pyrazol-4-one]",> 300
6,"CCNCC(=O)Nc1cccc2c1C(=O)c1c-2n[nH]c1-c1ccc(OC)cc1 [Example XXXI, 3-(4-methoxyphenyl)-5-(ethylaminoacetamido)indeno[1,2-c]pyrazol-4-one]",250
7,"COc1ccc(-c2[nH]nc3c2C(=O)c2c(NC(=O)CN4CCSCC4)cccc2-3)cc1 [Example XXXII, 3-(4-methoxyphenyl)-5-(thiomorpholinoacetamido)indeno[1,2-c]pyrazol-4-one]",298
8,"COc1ccc(-c2[nH]nc3c2C(=O)c2c(NC(=O)CN4CCOCC4)cccc2-3)cc1 [Example XXXIII, 3-(4-methoxyphenyl)-5-(morpholinoacetamido)indeno[1,2-c]pyrazol-4-one]",295
9,"COc1ccc(-c2[nH]nc3c2C(=O)c2c(NC(=O)CN4CCCC4)cccc2-3)cc1 [Example XXXIV, 3-(4-methoxyphenyl)-5-(pyrrolidinoacetamido)indeno[1,2-c]pyrazol-4-one]",279
10,"COc1ccc(-c2[nH]nc3c2C(=O)c2c(NC(=O)Cc4ccc(NC(=O)CN(C)C)cc4)cccc2-3)cc1 [Example XXXIX, 3-(4-methoxyphenyl)-5-((4-((N,N-dimethylamino)methylcarbonylamino)phenyl)acetamido) indeno[1,2-c]pyrazol-4-one]",> 300
11,"COc1ccc(-c2[nH]nc3c2C(=O)c2c(NC(=O)Cc4ccc(NC(C)=O)cc4)cccc2-3)cc1 [Example XXXVI, 3-(4-methoxyphenyl)-5-((4-acetamidophenyl)acetamido)indeno[1,2-c]pyrazol-4-one]",268
12,"COC(=O)Nc1ccc(CC(=O)Nc2cccc3c2C(=O)c2c-3n[nH]c2-c2ccc(OC)cc2)cc1 [Example XXXVII, 3-(4-methoxyphenyl)-5-((4-(methoxycarbonylamino)phenyl)acetamido) indeno[1,2-c]pyrazol-4-one]",257
13,"COc1ccc(-c2[nH]nc3c2C(=O)c2c(NC(=O)Cc4ccc(NC(=O)CN)cc4)cccc2-3)cc1 [Example XXXVIII, 3-(4-methoxyphenyl)-5-((4-(aminomethylcarbonylamino)phenyl)acetamido) indeno[1,2-c]pyrazol-4-one]",228
